Among the data in PubChem BioAssay (NCI) are GI50 and TGI values, retold here.

In general, GI50 refers to the concentration giving 50% growth inhibition. As a reminder, the TGI is the concentration giving total growth inhibition. A low value points to greater sensitivity of the cells.

Holding throughout (assay): DTP human tumour cell line panel, 48 h
For assay [1], the system named is IGROV1 ovarian.
The test system of assay [2] is HOP-92 NSCLC.
Assay [3] deals with A549 NSCLC.
For assay [4], the system named is SN12C renal.
In assay [5] the test system is SF-295 CNS.
For assay [6], the system named is RXF 393 renal.
Assay [7] has as its system MDA-MB-231 breast.
Assay [8] relates to ACHN renal.
The test system of assay [9] is NCI-H226 lung.
The subject of assay [10] is DU-145 prostate.

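Grown in 96-well plates, cells were treated for 48 hours with each compound at five concentrations. Insufficient inhibition: endpoint recorded as highest concentration tested. The concentration for 50% growth inhibition is given as GI50. TGI is the concentration that stops growth completely.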

Turning to `CN(C)CCNC(=O)c1ccc2c(c1)oc1cc3ccccc3c(=O)n12`, the GI50 in [1] is 10.6 µM; in assay [2], 9.78 µM; in [3], 12.3 µM; in assay [4], 15.4 µM; in [5] it was 14.2 µM; in [6] it was 19.6 µM. Also, the GI50 is 13 µM in [7] and 12.5 µM in [8]. The total growth inhibition concentration (TGI) in assay [1] turned out to be 26.4 µM; in assay [2], 38.4 µM; in assay [3] it was 27.5 µM; in assay [4], 30.6 µM; in assay [5], 32.5 µM; in assay [6], 36.6 µM. Further, the TGI is 27.9 µM in [7] and 26 µM in assay [8].
`Cn1cc(-c2ccc3c4ccccc4n(C)c3c2)c2ccccc21`: the TGI in [1], in assay [3], in assay [4], in assay [9], in assay [5] and in assay [6] was greater than 100 µM in each case. Moreover, in assay [8], the TGI is greater than 100 µM.
Consider `N.N.N.N.N#N.N#N.[Cl-].[Os+6]`, for which the GI50 in assay [1], in assay [3], in assay [4], in assay [9], in assay [5] and in assay [6] was greater than 100 µM each time. The TGI in [1], in [3], in assay [4], in assay [9], in assay [5] and in assay [6] was greater than 100 µM throughout.
Take `S=C1SCC2CCCN12` (centres undefined): the TGI in assay [1], in assay [2], in assay [3], in assay [4], in [5] and in assay [6] was greater than 100 µM throughout. For the same molecule, the TGI in assay [8] was greater than 100 µM.
Regarding `Cc1cccc(NC(=O)c2c(N)[n+]([O-])c3ccccc3[n+]2[O-])c1`, the TGI was determined as 21.5 µM in assay [1]; 29.5 µM in assay [2]; 34.6 µM in [3]; 17 µM in assay [4]; 27 µM in assay [9]; 23.3 µM in assay [5]. In addition, the results for the total growth inhibition concentration (TGI) in assay [6] and in [8] were 13.3 µM and 29.9 µM, respectively.
Regarding `Cc1cc(NS(=O)(=O)c2ccc(NC(=O)c3ccc(Cl)c4c(Nc5ccc(S(=O)(=O)Nc6cc(C)on6)cc5)c5ccccc5nc34)cc2)no1`, the TGI in assay [1] was 49.7 µM; in assay [2], 46.2 µM; in [3], 62.4 µM; in [4], 41.7 µM; in [5], 57.4 µM; in [8] it was 53.7 µM.
As for `O=C(n1c2ccccc2c2n[nH]c(=S)nc21)C(F)(F)F`, the TGI in assay [1], in assay [2], in [3], in assay [4], in [9] and in assay [5] was greater than 100 µM each time. In assay [6], this molecule registered a TGI greater than 100 µM.
Turning to `CCN(Cc1ccc(Cl)c(Cl)c1)c1ccc2nc(N)nc(N)c2c1C`, the concentration for 50% growth inhibition (GI50) in [1] was less than 0.01 µM; in assay [2], 0.24 µM; in assay [9], 0.96 µM; in [5], less than 0.01 µM; in assay [8], less than 0.01 µM; in [10], 0.0544 µM. Further, the total growth inhibition concentration (TGI) in assay [1] worked out at 1.58 µM; in assay [2], 1.82 µM; in assay [9], 4.3 µM; in assay [8] it was 1.78 µM; in [10], 2 µM.
With `CCCCC[C@@H]1CCCC2NC(CCCCCO[Si](c3ccccc3)(c3ccccc3)C(C)(C)C)CCC21` (some centres undefined), the TGI turned out to be 32.9 µM in [1]; 22.8 µM in assay [2]; 33.9 µM in assay [3]; 28.4 µM in assay [4]; 36.6 µM in [9]; 31.3 µM in assay [5]. In addition, the figures for the TGI in [6] and in assay [8] were 25.4 µM and 26.5 µM, respectively.
Consider `CNC(=O)[C@H](Cc1c[nH]c2ccccc12)NC(=O)[C@@H](CC(=O)NO)CC(C)C`, for which the GI50 in assay [1], in assay [3], in [4], in [9], in assay [5] and in assay [7] was greater than 25 µM throughout. The GI50 in assay [8] and in [10] was greater than 25 µM in each case. The TGI in [1], in assay [3], in [4], in assay [9], in [5] and in assay [7] was greater than 25 µM each time. For the same molecule, the TGI in [8] and in assay [10] was greater than 25 µM in each case.
As to `CC1(Cl)C(=O)NC(=O)N([C@H]2C[C@H](O)[C@@H](CO)O2)C1N=[N+]=[N-]` (some centres undefined), the TGI in assay [1], in [2], in [3], in assay [4], in assay [9] and in [5] was greater than 100 µM throughout. Further, the TGI in assay [6] and in assay [8] was greater than 100 µM throughout.
With `CCOC(=O)c1ccc(N=Cc2ccc(N(CCC#N)S(=O)(=O)c3ccccc3)cc2C)cc1`, the TGI in assay [1], in assay [3], in assay [4] and in assay [5] was greater than 100 µM throughout.
Regarding `COc1ccc2c(c1OC)C(=O)C2`, the TGI in assay [3], in assay [4], in assay [9], in assay [5], in assay [6] and in assay [8] was greater than 100 µM in each case.
Take `CC(=O)/C=C1\CC(=O)N(C)c2ccccc2N1`: the TGI in assay [1], in [2], in [3], in assay [4], in assay [9] and in [5] was greater than 100 µM throughout. Moreover, the TGI in [6] is greater than 100 µM.
Take `CN(C)CCCNc1ccnc2c([N+](=O)[O-])cccc12`: the TGI in assay [3] was 75.5 µM; in assay [4], 28.8 µM; in assay [9], greater than 100 µM; in assay [5], 42.2 µM; in [8], greater than 100 µM.
As for `C=CC[P@]1(=O)O[C@H](c2ccccc2)C(C)N1C(C)C` (some centres undefined), the TGI in [1], in assay [2], in assay [3], in [4], in assay [9] and in [5] was greater than 100 µM in each case. Besides, the TGI in [6] and in assay [8] was greater than 100 µM each time.
In the case of `CC(C)(C)C1=CC(=N/N=c2\scc(-c3ccccc3)n2Cc2ccccc2)C=C(C(C)(C)C)C1=O`, the TGI in assay [3], in assay [4], in [9], in assay [5], in assay [6] and in assay [8] was greater than 100 µM in each case.
With `COc1ccc2nc3cc(Cl)ccc3c(Sc3ccc(N)cc3)c2c1`, the TGI in assay [1] amounted to 32 µM; in assay [2], 39.7 µM; in assay [3], 30.1 µM; in assay [4], 24 µM; in assay [9], 34.3 µM; in [5] it was 38.9 µM. The TGI in [6] worked out at 24.7 µM; in assay [8] it was 21.9 µM.
Regarding `CC1=CC(=O)NP(=O)(Oc2ccc(Cl)cc2)N1` (centres undefined), the TGI in assay [1], in [2], in assay [3], in [4], in assay [9] and in assay [5] was greater than 100 µM throughout. In addition, the TGI in assay [6] and in [8] was greater than 100 µM in each case.
Consider `COc1ccc([N+](=O)[O-])c2c(NCCCN(C)C)c(C)c(C)nc12`, for which the concentration for total growth inhibition (TGI) in assay [1], in assay [2], in [3], in [4], in assay [5] and in assay [7] was greater than 100 µM each time. The TGI in [8] and in assay [10] was greater than 100 µM each time.
`Cc1nc(-n2nc(-c3ccccc3)cc2-c2ccccc2)sc1C(=O)CC(=O)C(=O)Nc1ccc(Cl)c(Cl)c1`: the TGI in assay [1], in assay [3], in [4], in assay [9], in [5] and in [6] was greater than 100 µM in each case. The TGI in assay [8] is greater than 100 µM.
Regarding `COC(=O)c1csc(-c2csc(CCNC(=O)OC(C)(C)C)n2)n1`, the TGI in [1], in assay [2], in assay [3], in [4], in assay [9] and in assay [5] was greater than 100 µM throughout. The TGI in assay [6], in [8] and in [10] was greater than 100 µM throughout.
For `COC1CCCc2c(OC(C)=O)ccc(OC(C)=O)c21` (centres undefined), the TGI in assay [1] is greater than 100 µM; in assay [2], 34.1 µM; in [3], greater than 100 µM; in assay [4] it was greater than 100 µM; in assay [9] it was greater than 100 µM; in [6], greater than 100 µM. In assay [8], this molecule gave a TGI greater than 100 µM.
As for `COCN1COCN(C)C1=O`, the TGI in assay [1], in assay [2], in [3], in [4], in [9] and in assay [5] was greater than 100 µM throughout. The same molecule displayed a TGI in assay [8] greater than 100 µM.
In the case of `N[C@H]1CCC[C@@H](O)C1O` (some centres undefined), the concentration for total growth inhibition (TGI) in [1], in assay [3], in [4], in [9], in assay [5] and in assay [7] was greater than 100 µM in each case. For the same molecule, the total growth inhibition concentration (TGI) in assay [8] and in assay [10] was greater than 100 µM throughout.
Regarding `CC(=O)OC1(Sc2ccccc2)CC2[C@H]3COC(C)(C)O[C@H]3CC[C@@]2(C)CC1=O` (some centres undefined), the concentration for total growth inhibition (TGI) in assay [1] is greater than 100 µM; in [2], 86.1 µM; in [3], greater than 100 µM; in assay [4], greater than 100 µM; in [9] it was greater than 100 µM; in assay [5], greater than 100 µM. Moreover, the TGI in assay [6] and in assay [8] was greater than 100 µM throughout.
For `Cc1nc2ccccc2c(=O)n1/N=C(\N=Nc1ccc(Cl)cc1)c1cccc(-c2ccco2)c1`, the TGI is greater than 100 µM in [1]; 55.4 µM in [2]; greater than 100 µM in assay [3]; greater than 100 µM in assay [4]; 94.6 µM in assay [5]; 76.8 µM in assay [6]. Further, the TGI in [8] is greater than 100 µM.
For `COC(=O)NC1(NC(=O)OC)NC(=O)c2ccccc2N1`, the TGI in assay [1], in [3], in assay [4], in assay [9], in assay [5] and in assay [7] was greater than 100 µM in each case. The total growth inhibition concentration (TGI) in assay [8] and in assay [10] was greater than 100 µM each time.
For the molecule `O=c1[nH]c2nc3ccccc3c(=O)n2nc1Cc1ccccc1`, the TGI in assay [1], in [3], in assay [4], in assay [9], in assay [5] and in [8] was greater than 100 µM throughout.
Regarding `Cc1c(C)c2cc3c(=O)c(CCl)coc3c(C)c2oc1=O`, the TGI in [1], in assay [3], in assay [4], in [9], in [5] and in assay [6] was greater than 100 µM in each case. Also, in [8], the TGI is greater than 100 µM.
As to `O=C(c1ccccc1)c1nc2c(Cl)ccc(Cl)c2cc1C(Br)Br`, the TGI in assay [1] was 12.4 µM; in assay [3], 13.4 µM; in [9], 3.61 µM; in assay [5], 2.6 µM; in [6] it was 4.05 µM; in assay [8], 1.52 µM.
Regarding `COc1ccc(-c2cc(=O)c3c(O)c(O)c(OC)cc3o2)cc1O`, the TGI in assay [1], in [2], in assay [3], in [4], in [9] and in assay [5] was greater than 100 µM throughout. In addition, the concentration for total growth inhibition (TGI) in assay [6] and in assay [8] was greater than 100 µM in each case.
